For assay [1], the system named is TAAR1-KO mice. The assay can be described thus: Cocaine-induced locomotor activity, co-injection, TAAR1-KO mice. Conditions: 5, 15 and 25 mg/kg co-injected with cocaine 10 mg/kg. It counts as in vivo. The method, then: (§1) The Taarl^-/- (TAAR1-KO) mice were obtained from Lundbeck ([Wolinsky et al., 2007]). All wild type (WT) and TAAR1-KO mice used for experiments were generated from TAAR1-KO heterozygous mice in a C57BL/6J x 129S1/Sv mixed background.
(§2) Experimentally naïve mice, of at least 12 weeks of age, were used for all behavioral experiments. The mice were randomly assigned to treatment or control groups, balanced by sex and weight. Locomotor activity was assessed using the automated locomotor analysis monitors (Omnitech Electronics, Columbus, OH, United States). The apparatus included four open field monitors. Each Open Field monitor consisted of sets of 16 light beams arrayed in the horizontal X and Y axes. The hardware detected beams broken by the animal, which allowed the software to determine the location of the mouse in the cage. Total distance covered by mice was used to characterize locomotor activity of the animals. The monitors were divided into four compartments (20 cm × 20 cm). Animals were tested individually for defined periods with 5-min intervals. The mice were first weighed and then placed into the apparatus, allowing for 30 min habituation. […] The locomotor activity was then measured for additional 1 h. […]
The locomotor activity was assessed for 60 min following the injection. […]

Assay [2] has as its system WT littermates (C57BL/6J x 129S2/Sv). The assay can be described thus: Stereotypic counts, co-injection with amphetamine, WT littermates. Type of assay: in vivo, mice. As to conditions: any dose (2.5, 5, 15 mg/kg) co-injected with amphetamine 2 mg/kg. As for the experimental part: as §2
Supplementary file Image_2.TIF: FIGURE S2 In vivo studies with TAAR1-KO mice and compound 22 on stereotypic counts activity. […] The sum of stereotypic counts was assessed over 60 min after the injection of amphetamine and compound 22 in WT (solid bars) or TAAR1-KO mice (spotted bars). […] The sum of stereotypic counts was assessed over 60 min following the injection in WT (solid bars) or TAAR1-KO mice (dotted bars). […]

A further assay concerns C57BL/6J mice. The assay can be described thus: Stereotypic counts, co-injection with amphetamine, C57BL/6J mice. It counts as in vivo. As to conditions: 5 and 20 mg/kg co-administered with amphetamine 2 mg/kg; sum over 60 min. The method, then:
as §2
(A) Wild type C57BL/6J mice were first habituated for 30 min followed by the co-injection of amphetamine (2 mg/kg) and saline or compound 22 at doses 5, 15, 20, 25, 30, and 50 mg/kg. The locomotor activity was assessed for 60 min after the injection. Sum of stereotypic counts assessed over 60 min after the injection of amphetamine and compound 22. […] The locomotor activity was assessed for 60 min after the injection. […]

In assay [3] the test system is TAAR1-KO mice. The assay can be described thus: Amphetamine-induced locomotor activity, co-injection, TAAR1-KO mice. Conditions: 15 mg/kg co-injected with amphetamine 2 mg/kg, p = 0.004. Type of assay: in vivo. The method, then:
as §1
Experimentally naïve mice, of at least 12 weeks of age, were used for all behavioral experiments. The mice were randomly assigned to treatment or control groups, balanced by sex and weight. Locomotor activity was assessed using the automated locomotor analysis monitors (Omnitech Electronics, Columbus, OH, United States). The apparatus included four open field monitors. Each Open Field monitor consisted of sets of 16 light beams arrayed in the horizontal X and Y axes. The hardware detected beams broken by the animal, which allowed the software to determine the location of the mouse in the cage. Total distance covered by mice was used to characterize locomotor activity of the animals. The monitors were divided into four compartments (20 cm × 20 cm). Animals were tested individually for defined periods with 5-min intervals. The mice were first weighed and then placed into the apparatus, allowing for 30 min habituation. Following the habituation, the mice were removed from the al apparatus and injected with drugs (see below for administration) or vehicle and returned immediately to the locomotor chamber.

The text below walks through data of paper PMC6131539, “Behavioral Effects of a Potential Novel TAAR1 Antagonist” (Frontiers in Pharmacology, 2018).

SMILES strings stand for the structures.

Regarding `Clc1ccc(CNCc2ccc(Cn3cncn3)cc2)c(Cl)c1` [compound 22], the “effect on locomotor stimulating effects of cocaine” value with TAAR1-KO mice [1] is “significantly potentiate”. Further, the stereotypic counts result in assay [2] is given as “did not have statistically enhanced stereotypic counts”; with C57BL/6J mice, “statistically significant increase in stereotypic counts”. In addition, in the assay with TAAR1-KO mice [3], the “potentiation of locomotor stimulating effects of amphetamine” value is given as 84%.
